Here are results for 13 compounds from ChEMBL document CHEMBL3751802, “Identification of six new lupane-type triterpenoids from Acanthopanax koreanum leaves and their tyrosinase inhibitory activities” (Bioorg Med Chem Lett, 2016).

Test [1] has as its target T1, Tyrosinase (Agaricus bisporus) (UniProt O42713).
T1 sequence (whole entry): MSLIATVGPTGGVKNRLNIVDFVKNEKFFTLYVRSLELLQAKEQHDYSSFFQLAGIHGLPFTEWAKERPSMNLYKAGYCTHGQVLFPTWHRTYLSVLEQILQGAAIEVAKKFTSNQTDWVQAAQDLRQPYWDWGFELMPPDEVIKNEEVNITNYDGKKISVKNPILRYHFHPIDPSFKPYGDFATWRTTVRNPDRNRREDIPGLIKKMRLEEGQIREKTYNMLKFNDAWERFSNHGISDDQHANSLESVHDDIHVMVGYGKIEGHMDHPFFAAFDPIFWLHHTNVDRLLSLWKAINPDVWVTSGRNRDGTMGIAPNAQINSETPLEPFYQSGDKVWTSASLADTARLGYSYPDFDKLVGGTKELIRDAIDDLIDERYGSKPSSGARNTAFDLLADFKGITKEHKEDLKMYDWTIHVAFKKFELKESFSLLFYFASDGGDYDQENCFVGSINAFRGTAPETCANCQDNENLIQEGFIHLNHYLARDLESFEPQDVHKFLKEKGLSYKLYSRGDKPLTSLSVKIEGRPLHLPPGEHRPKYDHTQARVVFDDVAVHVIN
As to the kind of experiment: Inhibition of mushroom tyrosinase using L-tyrosine as substrate at >12.5 uM measured every 1 min for 20 mins by spectrophotometric assay relative to control.

A further test has as its target T2, Tyrosinase (Agaricus bisporus, UniProt O42713).
T2 sequence (O42713 whole entry): T1 sequence (whole entry)
As to the kind of experiment: Inhibition of mushroom tyrosinase using L-tyrosine as substrate measured every 1 min for 20 mins by spectrophotometric assay.

The term inhibition denotes the change of the read-out against control, counted positive when it falls. `C=C(CO)[C@@H]1CC[C@]2(C(=O)O)CC[C@]3(C)[C@H](C[C@@H](O)[C@@H]4[C@@]5(C)CC[C@@H](O)[C@@](C)(C(=O)O)[C@@H]5CC[C@]43C)[C@@H]12`: the inhibition in test [1] is < 100%. For the compound `C[C@H](CO)[C@@H]1CC[C@]2(C(=O)O)CC[C@]3(C)[C@H](CC[C@@H]4[C@@]5(C)CC[C@@H](O)[C@@](C)(C=O)[C@@H]5C[C@H](O)[C@]43C)[C@@H]12`, the inhibition in test [1] is < 100%. On the same count and under the same terms, the figure for `C=C(C)[C@@H]1CC[C@]2(C(=O)O)CC[C@]3(C)[C@H](CC[C@@H]4[C@@]5(C)CC[C@@H](O)C(C)(C(=O)O)[C@@H]5CC[C@]43C)[C@@H]12` (some centres not stated) is < 100%. Same read-out and setting: the figure for `C=C(CO)[C@@H]1CC[C@]2(C(=O)O)CC[C@]3(C)[C@H](C[C@@H](O)[C@@H]4[C@@]5(C)CC[C@@H](O)C(C)(C)[C@@H]5CC[C@]43C)[C@@H]12` is < 100%; for `CC(=O)[C@@H]1CC[C@]2(C(=O)O)CC[C@]3(C)[C@H](C[C@@H](O)[C@@H]4[C@@]5(C)CC[C@@H](O)C(C)(C(=O)O)[C@@H]5CC[C@]43C)[C@@H]12` (some centres not stated) it is < 100%.

In the case of `C[C@@]12CCC[C@@](C)(C(=O)O[C@@H]3O[C@H](CO)[C@@H](O)[C@H](O)[C@H]3O)[C@H]1CC[C@@]13C[C@H](CC[C@H]12)[C@@](O)(CO)C3`, the inhibition in test [1] was < 100%. The same measure, in the same setting: the figure for `C=C(C)[C@@H]1CC[C@]2(C(=O)O)CC[C@]3(C)[C@H](C[C@@H](O)[C@@H]4[C@@]5(C)CC[C@@H](O)C(C)(C=O)[C@@H]5CC[C@]43C)[C@@H]12` (some centres not stated) is < 100%. By IC50 is commonly meant the point on the concentration scale where inhibition reaches its midpoint. The low end stands for greater potency, the high end for weaker potency. At Tyrosinase, `C=C(CO)[C@@H]1CC[C@]2(C(=O)O)CC[C@]3(C)[C@H](C[C@@H](O)[C@@H]4[C@@]5(C)CC[C@@H](O)[C@@](C)(C=O)[C@@H]5CC[C@]43C)[C@@H]12` came in with an IC50 of 63.5 µM. Further, in test [1], the inhibition is < 100%. In the same order, the values of `C=C(C)[C@@H]1CC[C@]2(C(=O)O)CC[C@]3(C)[C@H](CC[C@@H]4[C@@]5(C)CC[C@@H](O)[C@@](C)(C=O)[C@@H]5CC[C@]43C)[C@@H]12` are 25.8 µM and < 100%. Regarding `C[C@]12CC[C@@H](O)[C@@](C)(C(=O)O)[C@@H]1CC[C@]1(C)[C@@H]2CC[C@@H]2[C@H]3[C@H]([C@](C)(O)CO)CC[C@]3(C(=O)O)CC[C@]21C`, the midpoint of inhibition on Tyrosinase, the IC50, lay at 8.61 µM. Besides, the inhibition in test [1] is < 100%. Consider `C[C@H](C=O)[C@@H]1CC[C@]2(C(=O)O)CC[C@]3(C)[C@H](CC[C@@H]4[C@@]5(C)CC[C@@H](O)[C@@](C)(C(=O)O)[C@@H]5CC[C@]43C)[C@@H]12`, for which the inhibition in test [1] was < 100%. As for `CC1=CC[C@@H](C(C)(C)O[C@@H]2O[C@H](CO)[C@@H](O)[C@H](O)[C@H]2O)CC1`, at Tyrosinase, the IC50 was 16.9 µM. The inhibition in test [1] is < 100%. In the case of `COC(OC)[C@H](C)[C@@H]1CC[C@]2(C(=O)O)CC[C@]3(C)[C@H](CC[C@@H]4[C@@]5(C)CC[C@@H](O)[C@@](C)(C(=O)O)[C@@H]5CC[C@]43C)[C@@H]12`, the inhibition in test [1] is < 100%.
